Measured values as given in article PMC12116161, “An Elastase Inhibitor ShSPI from Centipede Attenuates Bleomycin-Induced Pulmonary Fibrosis” (Toxins, 2025).
“Also recorded” adds a separate entry of the source. Where a SMILES comes first, the peptide text is derived from it. Bridges are numbered along the chain shown (N, C = ends).

Key:
[1] = test system: BLM-induced idiopathic pulmonary fibrosis (IPF) mouse model; test: Body weight changes in BLM-induced IPF mouse model; format: in vivo, ICR mice; conditions: tracheal spray once daily for 7 days, BLM-induced IPF mice
Procedure: (§1) Animal Model Preparation: The peptide powder was dissolved in pre-cooled saline and filtered to remove bacteria, then a spray needle was attached to a micro-syringe to aspirate the peptide solution. A total of 56 ICR mice were anesthetized by intramuscular injection of avertin. After anesthesia, the mice were fixed supine, the tongue was gently pulled, the vocal folds were exposed with a laryngoscope, the trachea was gently inserted, and the nebulized solution was rapidly pushed and injected. Each mouse was administered 100 μL of a 0.4 mg/mL bleomycin solution via tracheal spray, with the treatment performed once. Seven days after modeling, the mice were randomly grouped for ShSPI treatment based on weight loss scores. An additional 8 mice received the vehicle (normal saline) and were designated as the sham group.
(§2) A total of 48 suitable mice were randomly divided into five groups: the model control group (MC), the positive control group (PC), and the ShSPI low-dose groups (1 mg/kg), medium-dose groups (2 mg/kg), and high-dose groups (4 mg/kg).
Drug Administration: Starting on day 7 post-modeling, ShSPI peptide treatment groups were anesthetized with intramuscular avertin and received tracheal spray administration of the peptide. […]
Body Weight Monitoring: The body weight of the mice was monitored and recorded from the modeling phase to the end of treatment (a total of two weeks).

[2] = test system: MCP-1, IL-6, IL-1β, IFN-γ, IL-10, TGF-β mRNA in lung tissue; test: RT-qPCR of inflammatory factor mRNA in lung tissue of IPF mice; format: in vivo, ICR mice; conditions: tracheal spray once daily for 7 days, BLM-induced IPF mice
Procedure: as §1, §2
Drug Administration: Starting on day 7 post-modeling, ShSPI peptide treatment groups were anesthetized with intramuscular avertin and received tracheal spray administration of the peptide. The low-dose group was treated with 1 mg/kg ShSPI peptide, the medium-dose group with 2 mg/kg, and the high-dose group with 4 mg/kg. The positive control group, without anesthesia, received 200 mg/kg pirfenidone (IPFD) via oral gavage. All groups were treated once daily for seven consecutive days.
The left lobe of the lung was collected from each mouse for total RNA extraction using RNAiso Plus, following the manufacturer’s instructions. The extracted RNA was quantified using a UV spectrophotometer. One microgram of total RNA was reverse transcribed into cDNA using a first-strand cDNA synthesis kit, following the provided protocol. Quantitative PCR (qPCR) was performed on a QuantStudio system using 2× SYBR Green qPCR Master Mix, and β-actin served as the internal control. The PCR reaction utilized a two-step protocol: 95 °C for 15 s, followed by 60 °C for 60 s, repeated for 40 cycles. Gene expression levels were calculated using the 2^−ΔΔCt method.

[3] = Pharmacokinetic study of ShSPI (plasma, LC-MS/MS); format: in vivo, mice; set-up: CI/F: unit not given here
Procedure: Each plasma sample was analyzed by LC-MS/MS, and the raw data were processed by DAS pharmacokinetic v2.1.1 software to obtain pharmacokinetic parameters (Table 3) and blood concentration–time curves (Figure 5).
Grouping and Sampling: SIPF grade Sprague Dawley (SD) healthy rats (male, procured from Hunan Slaughter King Laboratory Animal Co.) were randomly divided into three groups, with three rats in each group. All groups received a single administration of the ShSPI and were fasted for 12 h prior to dosing. The groups included two inhalation groups (1 mg/kg and 2 mg/kg) and an intravenous tail vein injection group (1 mg/kg). Blood samples were collected from the subclavian vein at 5 min, 15 min, 30 min, 1 h, 2 h, 4 h, 8 h, and 24 h post-dosing. A 0.2 mL blood sample was transferred into pre-labeled EDTA-2K anticoagulant tubes and gently inverted to ensure thorough mixing of the anticoagulant with the blood. Samples were immediately placed on ice. Plasma was separated within 1 h by centrifugation at 6800 rpm for 5 min at 4 °C. The supernatant was collected and stored at −20 °C until analysis.
Sample Preparation Before Analysis: Sample preparation was conducted under yellow light in an ice-water bath. For each analysis, 30 μL of standard or experimental sample was mixed with 200 μL of working solution, while blank samples were prepared with an equivalent volume of methanol. The mixture was vortexed thoroughly and centrifuged at 5500 rpm for 10 min. A 150 μL aliquot of the supernatant was mixed with 150 μL of ultrapure water, and the final mixture was subjected to analysis.
Chromatographic and Mass Spectrometry Conditions: Chromatographic separation was performed using an AQ C18 column (2.1 × 50 mm, 5.0 μm). The injection volume was 10 μL. The mobile phase consisted of 0.1% formic acid in water (A) and methanol (B), with the following gradient program: 10% B at 0–0.01 min, 98% B at 0.01–1.8 min, 98% B at 1.8–2.5 min, and 10% B at 2.5–3.0 min. The flow rate was set at 0.6 mL/min. Mass spectrometry analysis was performed using an electrospray ionization (ESI) source in multiple reaction monitoring (MRM) mode.

[4] = male, Sprague Dawley, inhaled or intranasal, 1 mg/kg ShSPI, single inhalation, plasma, LC-MS/MS, DAS software, mean ± s, n = 3, method SD rats
[5] = male, Sprague Dawley, inhaled or intranasal, 2 mg/kg ShSPI, single inhalation, plasma, LC-MS/MS, DAS software, mean ± s, n = 3, method SD rats

SMILES: CC[C@H](C)[C@@H]1NC(=O)[C@H](C)NC(=O)[C@@H]2CCCN2C(=O)[C@@H]2CSSC[C@H](NC(=O)[C@H](CO)NC(=O)[C@H](CC(N)=O)NC(=O)[C@H](CO)NC(=O)[C@H](Cc3ccc(O)cc3)NC(=O)[C@H](CCSC)NC(=O)[C@H](CCCNC(=N)N)NC(=O)CNC(=O)[C@H](Cc3ccccc3)NC(=O)[C@H](CCC(=O)O)NC(=O)[C@H](CC(=O)O)NC(=O)[C@H](Cc3ccccc3)NC(=O)[C@H](C(C)C)NC(=O)[C@@H]3CCCN3C(=O)[C@H](CCC(N)=O)NC(=O)[C@H](Cc3ccc(O)cc3)NC1=O)C(=O)N[C@@H](CCC(=O)O)C(=O)N[C@@H](CCSC)C(=O)N[C@@H](CCC(N)=O)C(=O)N[C@@H](CCCNC(=N)N)C(=O)N[C@@H](C)C(=O)N[C@@H](CCCNC(=N)N)C(=O)N[C@H](C(=O)N[C@@H](CC(C)C)C(=O)N[C@@H](CCCNC(=N)N)C(=O)NCC(=O)O)CSSC[C@H](N)C(=O)N1CCC[C@H]1C(=O)N[C@@H](CCC(N)=O)C(=O)N[C@@H](C(C)C)C(=O)N2 [ShSPI] (H-CPQVCPAIYQPVFDEFGRMYSNSCEMQRARCLRG-OH; disulfide 1-31, 5-24; N-terminus and C-terminus assumed)
- body weight recovery ([1]; ShSPI low-dose group (1 mg/kg)): upward trend, albeit with a slower recovery rate
- body weight recovery ([1]; ShSPI medium- and high-dose groups (2 and 4 mg/kg)): comparable to that of the positive control group
- TGF-β mRNA content in mouse lung tissue ([2]; ShSPI 1–4 mg/kg): no significant impact
- mRNA levels of pro-inflammatory cytokines (MCP-1, IL-6, IL-1β, IFN-γ) in lung tissue ([2]; ShSPI high dose 4 mg/kg, β-actin control): restored these pro-inflammatory cytokine ShSPI mRNA levels to normal
- IL-10 mRNA level in lung tissue ([2]; ShSPI low dose 1 mg/kg, β-actin control): restored the anti-inflammatory cytokine IL-10 mRNA levels to normal
- CI/F ([3]; 2 mg/kg ShSPI, single inhalation, plasma, LC-MS/MS, DAS software, mean ± s, n = 3, table says mice, method SD rats): 29.00 ± 11.90
- detectability in vivo (plasma) at 8 h post-administration ([3]; inhalation, doses of 1 mg/kg and 2 mg/kg, 8 h post-administration, LC-MS/MS): detected; also recorded: detectable
- detectability in vivo (plasma) at 24 h post-administration ([3]; inhalation, doses of 1 mg/kg and 2 mg/kg, 24 h post-administration, LC-MS/MS): no longer detectable
- AUC(0-t) [3, 4]: 580 ± 294 ng·h/mL
- Cmax [3, 4]: 188 ± 64.4 ng/mL
- MRT [3, 4]: 2.86 ± 0.725 h
- Tmax ([3]; male, Sprague Dawley, inhaled or intranasal, 1 mg/kg ShSPI, single inhalation, plasma, LC-MS/MS, DAS software, n = 3, method SD rats): 1 h
- AUC(0-inf) [3, 5]: 1260 ± 422 ng·h/mL
- AUC(0-t) [3, 5]: 1170 ± 415 ng·h/mL
- Cmax [3, 5]: 347 ± 151 ng/mL
- MRT [3, 5]: 3.1 ± 0.898 h
- half-life [3, 5]: 2.14 ± 0.663 h
- Tmax ([3]; male, Sprague Dawley, inhaled or intranasal, 2 mg/kg ShSPI, single inhalation, plasma, LC-MS/MS, DAS software, n = 3, method SD rats): 1 h
- overall metabolism in mice ([3]; overall assessment in words): moderate
